The source of these data is patent publication US6946260B2, “Allergen/inflammatory testing and diagnosis” (Euro/DPC Limited, priority 1992, dated 2005).

Type in all cases: cell-based, rat
Test [1] deals with RBL-2H3 cell-line transfected with the α-chain of the human high-affinity receptor for IgE. The test can be described thus: Attenuation of antigen- or irritant-induced mediator release by antagonists. The note with it: competing sugars; lectins of e.g. pollen or bacterial and viral agglutinins. Here is the method: For example, where a composition was being tested or developed for its ability to attenuate an IgE mediated response such as asthma or hay fever, antigen specific IgE would be present, for example, in the form of human serum.
Following incubation, cells were washed (2×1 ml) with buffer A (120 mM NaC1, 5 mM KC1, 25 mM PIPES, 1 mM CaC12, 0.04 mM MgC12, 5.6 mM glucose, 0.1% BSA, pH7.4) and pre-incubated for a further period of 10 minutes at 37 degrees C. with buffer A (0.5 ml) which was removed before challenge with buffer A (0.4 ml) supplemented with a pre-selected antigen (in an amount as afore described) and the therapeutic composition or the antagonist.
For the determination of antigen induced [^3H]-5HT release, the well was incubated at 37 degrees C. for 15 minutes, cooled on ice, supernatant was then removed and spun at 2000 g (1 minute) before liquid scintillation counting (2 minutes). The percentage release of [^3H]-5HT was calculated by the method of Siraganian and Hook.

For test [2] the test system is unchanged. The test can be described thus: Irritant/antigen-induced mediator release in the absence of IgE sensitization. The note with it: control, no sensitizing serum; same antigen concentrations. The method, then: Parent RBL-2H3 cells or clones transfected with the α-chain of the human high-affinity receptor complex were plated out in 24-well plates at 2×10^5 cells/well as described previously in the citations referred to on Page 2 of this application. For the determination of antigen-induced mediator release, plates were incubated at 37 degrees C. for 15 minutes, cooled on ice, the supernatant was removed, spun at […] (1 minute) before liquid scintillation counting to measure [^3H]-5-hydroxytryptamine (5-HT release. The ImmunoTech histamine enzyme immunoassay was used to quantify histamine release, and hydrolysis of toluene sulphonyl methyl ester was employed to monitor protease release (please see Wilson, A. P. M., Pullar, C. E., Camp, A. M., and Helm B. A., Human IgE Mediates Stimulus Secretion Coupling in Rat Basophilic Leukemia Cells Transfected with the Alpha Chain of the Human High-Affinity Receptor, European Journal of Immunology, 23:240-244, 1993, or alternatively, please see other references cited on Page 2 of this application). […]
For the determination of irritant or antigen induced [^3H]-5HT release, the well was incubated at 37 degrees C. for 15 minutes, cooled in ice, supernatant was then removed and spun at 2000 g (1 minute) before liquid scintillation counting (2 minutes). The percentage release of [^3H]-5HT was calculated by the method of Siraganian and Hook. […]

The subject of test [3] is RBL-2H3 (H 2/2/C) transfectants. The test can be described thus: Antigen-induced mediator release after sensitization with serum from a bee-venom-allergic individual. The note with it: cells sensitized with serum (1:10) of bee venom sensitive individual (EC), increasing antigen concentrations. The method, then: Triggering of RBL-2H3 (H 2/2/C) transfectants following sensitization with serum from a bee-venom-allergic individual. Cells were incubated with the serum (1:10), Dex (10-^6M) and [^3H]-5HT. After washing and pre-incubation the cells were challenged with a range of concentrations of purified bee venom phospholipase A2 (PLA2). The percentage release of [^3H]-5HT (●) and β-hexosaminidase (∘) were determined; data were corrected for background and normalized with respect to values obtained for triggering with hIgE-DNP (1 μg/mL and NIP-HSA (100 ng/mL).
Transfected RBL-2H3 clones were incubated for 24 hours with or without serum (1:10 dilution) from a bee venom sensitive individual (EC) in the presence of 10-^6M dexamethazone and [^3H]-5-hydroxytryptamine. […]
[^3H]-5-Hydroxytyptamine was measured after a 15 minutes incubation period, release was corrected for background and expressed relative to the total [^3H]-5-hydroxytryptamine incorporated. […]
For the determination of antigen induced [^3H]-5HT release, the well was incubated at 37 degrees C. for 15 minutes, cooled on ice, supernatant was then removed and spun at 2000 g (1 minute) before liquid scintillation counting (2 minutes). The percentage release of [^3H]-5HT was calculated by the method of Siraganian and Hook (Manual of Clinical Immunology of the American Society for Microbiology Washington D.C., 1980 Page 808).

In the case of `CC(=O)N[C@H]1[C@H]([C@H](O)[C@H](O)CO)OC(O)(C(=O)O)C[C@@H]1O` (stereo partly drawn) [N-acetyl neuraminic acid], in test [1], the “inhibition of triggering of mast cells and basophils by lectins” value (“inhibition” for short) was “can inhibit the triggering of mast cells and basophils”. With `C[C@@H]1O[C@@H](O)[C@@H](O)[C@H](O)[C@@H]1O` [a-L-fucose], the “inhibition” value in test [1] was “can inhibit the triggering of mast cells and basophils”. Regarding bee venom phospholipase A2, the “mediator release dose response in non-sensitized cells” value in test [2] is recorded as “mediator release increased in response to antigen concentration”. For the same compound, the figures for the “mediator release ([3H]-5HT, β-hexosaminidase) dose response in sensitized cells” value in test [3] and in test [3] (listed as bee venom PLA2) were “typical bell-shaped dose response pattern” and “typical bell-shaped dose response curve”, respectively.

On to `CO[C@H]1O[C@H](CO)[C@@H](O)[C@H](O)[C@@H]1O` [a-methyl-mannoside], for which the “inhibition” value in test [1] is “can inhibit the triggering of mast cells and basophils”. Same read-out and setting: for `CC(=O)N[C@H]1C(O)O[C@H](CO)[C@@H](O)[C@@H]1O` (stereo partly drawn) [N-acetyl-D-glucosamin] the value was “can inhibit the triggering of mast cells and basophils”; for `OC[C@H]1O[C@@H](O[C@H]2[C@H](O)[C@@H](O)C(O)O[C@@H]2CO)[C@H](O)[C@@H](O)[C@H]1O` (stereo partly drawn) [lactose], “can inhibit the triggering of mast cells and basophils”. Take `OC[C@H]1O[C@@H](O)[C@H](O)[C@@H](O)[C@H]1O` [b-D-galactose]: in test [1], the “inhibition” value was “can inhibit the triggering of mast cells and basophils”.
